Source: patent publication US20120220581A1, “IMIDAZO[1,2-b]PYRIDAZINE DERIVATIVES AND THEIR USE AS PDE10 INHIBITORS” (Janssen-Cilag, S.A., priority 2009, published 2012)
Read-outs that look alike come from different tables or passages of the source.

Assays:
[1] = test system: female hooded-Lister rats; experiment: Object recognition test (NOR) after sub-chronic PCP; format: in vivo, rat; conditions: for LMA (no. of lines crossed): mean
Experimental: 60 female hooded-Lister rats (Charles River, UK) were used as subjects for these studies and weighed 248 g±20 g. Rats were allowed at least a 7-day acclimatization period to the animal unit prior to commencement of experimentation. Rats were housed in groups of 5 under standard laboratory conditions under a 12 h light:dark cycle, lights on at 0700 h. All testing was carried out in the light phase. Food and water were freely provided. All experiments were conducted in accordance with the Animals Scientific Procedures Act, U.K. 1986 and were approved by the University of Bradford ethical review panel.
40 mg of test compound was dissolved in 5 ml of 40% hydroxypropyl β-cyclodextrin (HPBC) solution. The solution was sonicated until completely dissolved. 2 ml of sterile water was added and the pH measured and adjusted with NaOH solution (0.1N) to obtain pH ˜4. Finally, sterile water was added to a final volume of 10 ml. This stock solution was then diluted in 20% HPBC to obtain the final concentrations. 100 mg of PQ10 was dissolved in a 40% HPBC solution and 8 mg of tartaric acid. The solution was sonicated until completely dissolved. 5 ml of sterile water was added and the pH measured and adjusted with NaOH solution (0.1N) to obtain pH ˜4. Finally sterile water was added to a final volume of 10 ml.
Test compound was administered at doses of 0.3 and 1.0 mg/kg via the oral route 30 min prior to testing.
PQ10 was administered at a dose of 1.0 mg/kg via the oral route 30 min prior to testing.
Certain pre-clinical tests allow the observation of relatively subtle cognitive deficits in the rat that resemble cognitive symptoms in subjects with schizophrenia. The cognitive deficits observed are seen in behaviours such as episodic memory, which can be measured by recognition tasks such as the novel object recognition (NOR) paradigm. A recognition memory task allows the comparison between presented stimuli and previously stored information. Ennaceur, A Delacour, J (1988) A new one-trial test for neurobiological studies of memory in rats Behav Brain Res 31: 47-59 described the NOR test in rats which was based on the differential exploration of familiar and new objects. The NOR test is a non-rewarded, ethologically relevant paradigm based on the spontaneous exploratory behaviour of rats that measures episodic memory. Each session consists of two trials. In the first trial, the rats are exposed to two identical objects in an open field. During the second trial, rats are exposed to two dissimilar objects, one familiar object from the first trial and one new object. Object recognition in rats can be measured as the difference in time spent exploring the familiar and the new object. […] The duration of each trial is also important as a preference for the novel object only lasts during the first 1 or 2 minutes, after which time preference diminishes as both objects become familiar and are explored equally.
Rats were randomly assigned to the 8 treatment groups
Rats were allowed to habituate to the empty test box and the behavioural test room environment for 1 h on day 1. Prior to behavioural testing on day 2 rats were given a further 3 min habituation.
Following the 3 min habituation period, the rats were given two 3 min trials (T1 and T2) which were separated by a 1 min inter-trial interval in the home cage during which the objects were changed.
In this trial, the animals were allowed to explore two identical objects (A1 and A2) for 3 min.
In this trial, the animals explored a familiar object (A) from T1 and a novel object (B) for 3 min. The familiar object presented during T2 was a duplicate of the object presented in T1 in order to avoid any olfactory trails.
The object exploration was defined by animals licking, sniffing or touching the object with the forepaws whilst sniffing, but not leaning against, turning around, standing or sitting on the object. […]

[2] = target: T1, Rat recombinant PDE10A (rPDE10A2) (Rattus norvegicus, UniProt Q9QYJ6); experiment: In vitro assay PDE10A (SPA, 3H-cAMP); format: biochemical
T1 construct: inferred from the Ni metal chelate purification; made in house; host or cells: Sf9 insect cells (baculovirus)
T1 sequence (Q9QYJ6 1-794): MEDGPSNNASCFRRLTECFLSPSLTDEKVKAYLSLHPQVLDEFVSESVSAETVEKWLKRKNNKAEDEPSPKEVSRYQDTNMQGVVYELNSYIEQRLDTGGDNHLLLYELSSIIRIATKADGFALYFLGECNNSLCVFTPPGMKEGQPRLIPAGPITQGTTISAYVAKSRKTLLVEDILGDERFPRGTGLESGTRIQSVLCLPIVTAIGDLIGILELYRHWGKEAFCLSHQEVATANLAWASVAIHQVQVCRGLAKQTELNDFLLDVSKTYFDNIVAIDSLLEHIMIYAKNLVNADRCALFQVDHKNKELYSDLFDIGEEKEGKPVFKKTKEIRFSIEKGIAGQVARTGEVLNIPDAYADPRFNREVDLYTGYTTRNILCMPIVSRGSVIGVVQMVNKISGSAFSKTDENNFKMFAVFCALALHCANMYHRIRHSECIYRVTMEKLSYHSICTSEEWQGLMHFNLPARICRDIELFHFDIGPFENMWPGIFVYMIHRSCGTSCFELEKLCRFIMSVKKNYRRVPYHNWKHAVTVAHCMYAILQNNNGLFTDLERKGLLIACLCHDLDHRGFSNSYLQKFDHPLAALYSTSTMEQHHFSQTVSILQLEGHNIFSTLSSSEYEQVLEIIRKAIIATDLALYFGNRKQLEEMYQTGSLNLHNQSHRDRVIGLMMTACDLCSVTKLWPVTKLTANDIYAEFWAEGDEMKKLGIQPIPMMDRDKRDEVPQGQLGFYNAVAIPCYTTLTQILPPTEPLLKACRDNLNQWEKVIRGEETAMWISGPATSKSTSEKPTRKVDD
Procedure, shortened: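 Scintillation proximity read-out (cpm) of 3H-cAMP hydrolysis after 60 min at room temperature, with enzyme-free blanks and 1% DMSO controls. Enzyme was Sf9-expressed, Ni-sepharose-purified rat rPDE10A2; substrate 60 nM cAMP with tracer, buffer Tris pH 7.8 containing MgCl2 and EGTA.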

Compound	LMA (no. of lines crossed) ([1]; PCP + 0.3 mg/kg p.o.)	LMA (no. of lines crossed) ([1]; PCP + 1 mg/kg p.o.)	effects of acute treatment in the NOR task ([1]; acute treatment, oral route 30 min prior to testing, compound 1 0.3-1.0 mg/kg, PQ10 1.0 mg/kg, sub-chronic PCP female rats)	IC50 ([2]; Table 4 in vitro selectivity, read-out: PDE 10A2 (expressed as pIC50) (converted))	IC50 ([2]; pIC50 corresponds to the −log IC50 expressed in mol/L, read-out: PDE10A2 pIC50 (converted))
COCCc1ccc(-c2c(C)nc3c(N4CCOCC4)ccnn23)cn1 [compound 1, 3-[6-(2-methoxyethyl)-3-pyridinyl]-2-methyl-8-(4-morpholinyl)-imidazo[1,2-b]pyridazine]	56.5 no. of lines crossed	56.4 no. of lines crossed	selective for the retention phase	–	–
COCCOc1ccc(-c2c(C)nc3c(-c4ccncc4)ccnn23)cn1 [compound 21, 3-[6-(2-methoxyethoxy)-3-pyridinyl]-2-methyl-8-(4-pyridinyl)-imidazo[1,2-b]pyridazine]	–	–	–	102 nM	102 nM
